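Method: 48-hour compound exposure of cells in 96-well plates, five concentrations, linear interpolation of endpoints. At the GI50, growth is halved.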 Active and inactive are the calls of the source. Cut-off read from the data, not from the text of the source: active = GI50 up to about 1.1 µM and inactive = higher.

Results on 11 molecules are retold here after ChEMBL document CHEMBL1201862, “PubChem BioAssay data set” (2004).

Common to all, as to assay: growth of human tumour cells (NCI), 48 h
For assay [1], the system named is 786-0.
Assay [2] deals with CAKI-1.
The test system of assay [3] is CCRF-CEM.
Assay [4] relates to DU-145.
Assay [5] deals with Hs-578T.
The test system of assay [6] is MDA-MB-231.
The subject of assay [7] is MDA-MB-435.
Assay [8] relates to MDA-N.
Assay [9] concerns NCI/ADR-RES.
The subject of assay [10] is PC-3.
The test system of assay [11] is RXF 393.
The test system of assay [12] is SF-539.
The subject of assay [13] is SK-MEL-2.
The test system of assay [14] is SR.
Assay [15] has as its system SW-620.
The subject of assay [16] is T47D.
In assay [17] the test system is TK-10.
Assay [18] deals with A498.
The test system of assay [19] is HT-29.
Assay [20] relates to SNB-75.

As to `O=C(c1ccccc1)C1C(C(=O)c2ccccc2)C(c2ccccc2)N(c2ccccc2)C1c1ccccc1` (centres undefined), the GI50 in [1] is > 100 µM (inactive); in [2] it was > 100 µM (inactive); in assay [3], > 100 µM (inactive); in assay [4], > 100 µM (inactive); in [5], 48 µM (inactive); in assay [6] it was > 100 µM (inactive). The GI50 in [7], in [8], in [9], in assay [10], in assay [11] and in [12] was > 100 µM (inactive) throughout. Further, the GI50 in assay [13], in assay [14], in [15], in assay [16] and in assay [17] was > 100 µM (inactive) throughout.

Regarding `CCOC(=O)c1[nH]c2nc(SC)nc(Nc3ccccc3Cl)c2c1N`, the GI50 in assay [1] was 20.2 µM (inactive); in [18] it was 12.6 µM (inactive); in [2], 25.5 µM (inactive); in [3], 15.3 µM (inactive); in [4] it was 23.2 µM (inactive); in [19], 11.7 µM (inactive). Also, the GI50 in assay [5] was 20.1 µM (inactive); in [6], 16.6 µM (inactive); in [7] it was 31.6 µM (inactive); in assay [8], 30.5 µM (inactive); in [9] it was 18.8 µM (inactive); in assay [10] it was 15.7 µM (inactive). Besides, the GI50 in assay [11] is 12.4 µM (inactive); in assay [13], 29 µM (inactive); in assay [20], 16.2 µM (inactive); in [15], 27.2 µM (inactive); in assay [16], 13.1 µM (inactive); in [17], 22.5 µM (inactive).

As to `c1ccc(C[n+]2ccc3c(c2)CCCC3)cc1`, the GI50 in [1] is > 100 µM (inactive); in assay [2], > 100 µM (inactive); in [3], > 100 µM (inactive); in assay [4], > 100 µM (inactive); in assay [19] it was 50.9 µM (inactive); in assay [5], 49.9 µM (inactive). Also, the GI50 in assay [6] was > 100 µM (inactive); in assay [7], > 100 µM (inactive); in assay [8], > 100 µM (inactive); in assay [9], > 100 µM (inactive); in [10], 78 µM (inactive); in assay [11], > 100 µM (inactive). Also, the GI50 was > 100 µM (inactive) in [12]; 84.3 µM (inactive) in assay [13]; 54.1 µM (inactive) in [20]; > 100 µM (inactive) in assay [14]; > 100 µM (inactive) in [15]; 45.3 µM (inactive) in assay [16]. In addition, the GI50 in assay [17] is > 100 µM (inactive).

Turning to `CC(C)Oc1c(C2(c3ccccc3O)SCCCS2)c(=O)c1=O`, the GI50 in assay [1] is > 100 µM (inactive); in [18], 62.8 µM (inactive); in [2], > 100 µM (inactive); in [3] it was 20.5 µM (inactive); in assay [4] it was 93.3 µM (inactive); in assay [19], > 100 µM (inactive). For the same molecule, the GI50 in assay [5] is > 100 µM (inactive); in assay [6], 69.2 µM (inactive); in assay [7], > 100 µM (inactive); in assay [8], > 100 µM (inactive); in [9], > 100 µM (inactive); in assay [10] it was > 100 µM (inactive). For the same molecule, the GI50 is 75.9 µM (inactive) in assay [11]; > 100 µM (inactive) in assay [12]; > 100 µM (inactive) in assay [13]; 36.1 µM (inactive) in [20]; > 100 µM (inactive) in assay [15]; 38.9 µM (inactive) in [16]. Also, in assay [17], the GI50 was > 100 µM (inactive).

For `Cc1n[nH]c(=O)n1N1C(=O)CCCC1=O`, the GI50 in assay [1], in [18], in assay [2], in assay [3], in assay [4] and in [19] was > 100 µM (inactive) each time. In addition, the GI50 in assay [5], in assay [6], in assay [7], in assay [8], in assay [9] and in assay [10] was > 100 µM (inactive) throughout. The GI50 in [11], in assay [12], in assay [13], in assay [20], in assay [16] and in assay [17] was > 100 µM (inactive) throughout.

Regarding `COc1ccc2c(c1O)C13CCN(C)C(C2)C1CCC1(C3)OCCO1` (centres undefined), the GI50 in [1], in [2], in assay [4], in assay [19], in assay [5] and in assay [6] was > 100 µM (inactive) each time. Also, the GI50 in [7], in [8], in [9], in assay [10], in [11] and in assay [13] was > 100 µM (inactive) in each case. The GI50 in [20], in assay [14], in assay [15], in [16] and in [17] was > 100 µM (inactive) throughout.

On to `COc1cc(OCCN(C)C)c2[nH]c(C(=O)N3CC(CCl)c4c3cc(N)c3ccccc43)cc2c1` (centres undefined), for which the GI50 in assay [1], in assay [18], in assay [2], in assay [3], in assay [4] and in assay [19] was < 0.01 µM (active) in each case. In addition, the GI50 in assay [5], in assay [6], in [7], in assay [8], in assay [9] and in [10] was < 0.01 µM (active) each time. The GI50 is < 0.01 µM (active) in assay [11]; < 0.01 µM (active) in [12]; < 0.01 µM (active) in assay [13]; < 0.01 µM (active) in assay [20]; < 0.01 µM (active) in assay [15]; 0.0139 µM (active) in [16]. Moreover, in [17], the GI50 was < 0.01 µM (active).

As to `N=C(Cc1ccccc1)NCC(=O)O`, the GI50 in assay [1], in assay [18], in assay [2], in assay [3], in [4] and in assay [19] was > 100 µM (inactive) each time. Moreover, the GI50 in [5], in [6], in [7], in assay [8], in [9] and in [10] was > 100 µM (inactive) each time. For the same molecule, the GI50 in assay [11], in assay [13], in assay [20], in assay [15], in assay [16] and in [17] was > 100 µM (inactive) in each case.

For `CC[S+]([O-])C(=O)N(O)c1ccc(Cl)cc1` (centres undefined), the GI50 was 21.7 µM (inactive) in [1]; 56.4 µM (inactive) in [18]; 17.7 µM (inactive) in assay [2]; 12.6 µM (inactive) in assay [3]; > 100 µM (inactive) in assay [4]; 41.2 µM (inactive) in assay [5]. For the same molecule, the GI50 is 29.4 µM (inactive) in assay [6]; 15 µM (inactive) in [7]; 20 µM (inactive) in assay [8]; 24.9 µM (inactive) in [9]; 37.4 µM (inactive) in [10]; 19.7 µM (inactive) in assay [11]. Further, the GI50 is 24.9 µM (inactive) in [12]; 15.3 µM (inactive) in assay [13]; 32.1 µM (inactive) in [20]; 18 µM (inactive) in assay [15]; 31.3 µM (inactive) in [16]; 35.8 µM (inactive) in assay [17].

Regarding `O=C(O)C1CCCCC1c1c2ccc(=O)cc-2oc2cc(O)ccc12` (centres undefined), the GI50 was 32.1 µM (inactive) in assay [1]; 37.8 µM (inactive) in assay [18]; 31.8 µM (inactive) in assay [2]; 42.8 µM (inactive) in assay [3]; 26.5 µM (inactive) in [4]; 29.3 µM (inactive) in assay [19]. Moreover, the GI50 is 34.8 µM (inactive) in assay [5]; 30.8 µM (inactive) in assay [6]; 13.4 µM (inactive) in assay [7]; 21.6 µM (inactive) in [8]; 43.9 µM (inactive) in [9]; 28.8 µM (inactive) in [10]. The GI50 is 18.7 µM (inactive) in [11]; 18 µM (inactive) in [12]; 29.4 µM (inactive) in assay [13]; 25.1 µM (inactive) in assay [20]; 44.9 µM (inactive) in assay [15]; 19.1 µM (inactive) in assay [16]. Moreover, in [17], the GI50 is 52.1 µM (inactive).

Consider `CC1(C)Oc2ccc3c(=O)c(-c4ccccc4)c(-c4ccccc4)oc3c2C1C(=O)O` (centres undefined), for which the GI50 in assay [1], in [18], in assay [2], in assay [3], in assay [4] and in assay [19] was > 100 µM (inactive) in each case. The GI50 in assay [5] is 64.9 µM (inactive); in assay [6], > 100 µM (inactive); in assay [7], > 100 µM (inactive); in [8], > 100 µM (inactive); in assay [9] it was > 100 µM (inactive); in [10], > 100 µM (inactive). Moreover, the GI50 in [11], in [12], in [13], in assay [16] and in assay [17] was > 100 µM (inactive) each time.
